Data on 11 molecules can be found in patent US12588678B2, “Oxazoline compound, synthesis method therefor and application thereof” (NANKAI UNIVERSITY, priority 2019, dated 2026).

Assay [1] has as its system Tetranychus cinnabarinus mite larvae. As to the kind of experiment: Larvicidal activity test, dipping method on bean seedling leaves. The class given is in vivo. The following applies: for acaricidal activity compared with etoxazole: Tetranychus cinnabarinus eggs and larvae, etoxazole as reference; for mortality at 0.01 µg/mL / mortality at 0.05 µg/mL / mortality at 0.1 µg/mL / mortality at 1 µg/mL / mortality at 10 µg/mL / mortality at 100 µg/mL / mortality at 200 µg/mL / mortality at 0.001 µg/mL / mortality at 0.5 µg/mL: Tetranychus cinnabarinus, 96 h, checked after 4 days; for mortality at 0.01 µg/mL: read-out: mortality of mite larvae (%), 0.01 mg/L; for mortality at 0.05 µg/mL: read-out: mortality of mite larvae (%), 0.05 mg/L; for mortality at 0.1 µg/mL: read-out: mortality of mite larvae (%), 0.1 mg/L; for mortality at 1 µg/mL: read-out: mortality of mite larvae (%), 1 mg/L; for mortality at 10 µg/mL: read-out: mortality of mite larvae (%), 10 mg/L; for mortality at 100 µg/mL: read-out: mortality of mite larvae (%), 100 mg/L; for mortality at 200 µg/mL: read-out: mortality of mite larvae (%), 200 mg/L; for larvicidal activity, times that of etoxazole: relative to etoxazole; for mortality at 0.001 µg/mL: read-out: mortality of mite larvae (%), 0.001 mg/L; for mortality at 0.5 µg/mL: read-out: mortality of mite larvae (%), 0.5 mg/L. From the text:
(§1) The assay examples are used to illustrate the acaricidal activity against Tetranychus cinnabarinus (mortality of mite larvae and mortality of mite eggs) of the compounds having the structure represented by formula (I), and the results are shown in tables 1 to 9, where mortality of mite larvae % =(number of dead mite larvae applied/total number of mite larvae applied)×100, and mortality of mite eggs %= (number of dead mite eggs applied/total number of mite eggs applied)×100.
Tetranychus cinnabarinus bred indoors on bean seedlings was used as a test subject by the dipping method. Move adult mites onto the newly grown complete bean seedling leaves with two leaves, cut off the bean seedlings, place the bean seedlings in a greenhouse with illumination at 25° C. for laying eggs for 24 hours, then remove adult mites and keep mite eggs. And continuously culture in the greenhouse for 5 days until mite eggs hatch into mite larvae (ensuring that the number of the mites on each tested leaf is not less than 60).
Completely immerse the bean seedling leaves containing the mite larvae into the sample solution to be detected with Tween at the prepared concentration for 5-6 seconds by using tweezers, slightly throw off residual liquid, put the bean seedling leaves back to the culture cup, continuously culture for 4 days and check the result. One of the plants was immersed in a solution containing no sample to be tested and the remaining additives were identical to the sample solution as a blank control. Each compound was replicated three times.

The subject of assay [2] is Tetranychus cinnabarinus mite eggs. Briefly: Activity against mite eggs, dipping method on bean seedling leaves. In kind it is in vivo. The following applies: for mortality at 0.01 µg/mL / mortality at 0.05 µg/mL / mortality at 0.1 µg/mL / mortality at 1 µg/mL / mortality at 10 µg/mL / mortality at 100 µg/mL / mortality at 200 µg/mL / mortality at 0.001 µg/mL / mortality at 0.5 µg/mL: Tetranychus cinnabarinus, 96 h, checked after 4 days; for mortality at 0.01 µg/mL: read-out: mortality of mite eggs (%), 0.01 mg/L; for mortality at 0.05 µg/mL: read-out: mortality of mite eggs (%), 0.05 mg/L; for mortality at 0.1 µg/mL: read-out: mortality of mite eggs (%), 0.1 mg/L; for mortality at 1 µg/mL: read-out: mortality of mite eggs (%), 1 mg/L; for mortality at 10 µg/mL: read-out: mortality of mite eggs (%), 10 mg/L; for mortality at 100 µg/mL: read-out: mortality of mite eggs (%), 100 mg/L; for mortality at 200 µg/mL: read-out: mortality of mite eggs (%), 200 mg/L; for mortality at 0.001 µg/mL: read-out: mortality of mite eggs (%), 0.001 mg/L; for mortality at 0.5 µg/mL: read-out: mortality of mite eggs (%), 0.5 mg/L.
Text: as §1
Tetranychus cinnabarinus bred indoors on bean seedlings was used as a test subject by the dipping method. Move female adult mites onto the newly grown complete bean seedling leaves with two leaves, cut off the bean seedlings, place the bean seedlings in a greenhouse with illumination at 25° C. for laying eggs for 24 hours, then remove adult mites and keep mite eggs. After continuously culturing in the greenhouse for one day, completely soak the bean seedling leaves containing the acarid eggs into the prepared sample solution to be tested for 5-6 seconds by using tweezers, slightly throw off residual liquid, put the bean seedling leaves back to the culture cup, continuously culture for 4 days and then check the result. One of the plants was immersed in a solution containing no sample to be tested and the remaining additives were identical to the sample solution as a blank control. Each compound was replicated three times.

As to `Cc1cccc2ccn(Cc3ccc(C4COC(c5c(F)cccc5F)=N4)cc3)c12` (centres unmarked) [Compound R1-18], in assay [1], the “acaricidal activity compared with etoxazole” value is “higher acaricidal activity than etoxazole”, the mortality at 0.01 µg/mL is 45%, the mortality at 0.05 µg/mL turned out to be 55% and the mortality at 0.1 µg/mL was found to be 75%. Moreover, in assay [1], the mortality at 1 µg/mL was found to be 85%, the mortality at 10 µg/mL was 100%, the mortality at 100 µg/mL was determined as 100% and the mortality at 200 µg/mL was found to be 100%. Also, the “larvicidal activity, times that of etoxazole” value in assay [1] came out at 5 times. In assay [2], the mortality at 0.01 µg/mL stood at 30%, the mortality at 0.05 µg/mL came out at 55%, the mortality at 0.1 µg/mL is 75% and the mortality at 1 µg/mL came out at 80%. In assay [2], the mortality at 10 µg/mL turned out to be 100%, the mortality at 100 µg/mL was 100% and the mortality at 200 µg/mL amounted to 100%.
For `Fc1cccc(F)c1C1=NC(c2ccc(Cn3ccc4c(F)cccc43)cc2)CO1` (centres unmarked) [Compound R1-20], in assay [1], the mortality at 1 µg/mL amounted to 45%, the mortality at 10 µg/mL was found to be 70%, the mortality at 100 µg/mL is 100% and the mortality at 200 µg/mL is 100%. Also, in assay [2], the mortality at 1 µg/mL stood at 60%, the mortality at 10 µg/mL was found to be 80%, the mortality at 100 µg/mL amounted to 100% and the mortality at 200 µg/mL turned out to be 100%.
Take `Fc1ccc2ccn(Cc3ccc(C4COC(c5c(F)cccc5F)=N4)cc3)c2c1` (centres unmarked) [Compound R1-21]: in assay [1], the mortality at 10 µg/mL came to 60%, the mortality at 100 µg/mL turned out to be 100% and the mortality at 200 µg/mL stood at 100%. Further, in assay [2], the mortality at 1 µg/mL amounted to 30%, the mortality at 10 µg/mL came to 70%, the mortality at 100 µg/mL was found to be 100% and the mortality at 200 µg/mL was determined as 100%.
Take `Fc1ccc2c(ccn2Cc2ccc(C3COC(c4c(F)cccc4F)=N3)cc2)c1` (centres unmarked) [Compound R1-22]: in assay [1], the “acaricidal activity compared with etoxazole” value is on record as “higher acaricidal activity than etoxazole”, the mortality at 0.05 µg/mL worked out at 45%, the mortality at 0.1 µg/mL worked out at 70% and the mortality at 1 µg/mL was 80%. Besides, in assay [1], the mortality at 10 µg/mL worked out at 85%, the mortality at 100 µg/mL is 100% and the mortality at 200 µg/mL was found to be 100%. Moreover, in assay [2], the mortality at 0.05 µg/mL is 45%, the mortality at 0.1 µg/mL worked out at 75%, the mortality at 1 µg/mL is 85% and the mortality at 10 µg/mL was found to be 90%. In addition, in assay [2], the mortality at 100 µg/mL worked out at 98% and the mortality at 200 µg/mL came out at 100%.
For the molecule `Fc1cccc(F)c1C1=NC(c2ccc(Cn3ccc4cc(Cl)ccc43)cc2)CO1` (centres unmarked) [Compound R1-23], in assay [1], the mortality at 1 µg/mL is 50%, the mortality at 10 µg/mL worked out at 80%, the mortality at 100 µg/mL worked out at 100% and the mortality at 200 µg/mL was 100%. Further, in assay [2], the mortality at 1 µg/mL is 60%, the mortality at 10 µg/mL turned out to be 75%, the mortality at 100 µg/mL is 100% and the mortality at 200 µg/mL was determined as 100%.
For the molecule `Fc1cccc(F)c1C1=NC(c2ccc(Cn3ccc4cc(Br)ccc43)cc2)CO1` (centres unmarked) [Compound R1-24], in assay [1], the mortality at 10 µg/mL amounted to 60%, the mortality at 100 µg/mL turned out to be 100% and the mortality at 200 µg/mL was found to be 100%. In assay [2], the mortality at 1 µg/mL is 40%, the mortality at 10 µg/mL came out at 80%, the mortality at 100 µg/mL was found to be 100% and the mortality at 200 µg/mL is 100%.
With `COc1ccc2ccn(Cc3ccc(C4COC(c5c(F)cccc5F)=N4)cc3)c2c1` (centres unmarked) [Compound R1-25], in assay [1], the mortality at 10 µg/mL was 20%, the mortality at 100 µg/mL was found to be 70% and the mortality at 200 µg/mL is 80%. Moreover, in assay [2], the mortality at 1 µg/mL stood at 40%, the mortality at 10 µg/mL stood at 65%, the mortality at 100 µg/mL was found to be 90% and the mortality at 200 µg/mL is 100%.
Turning to `COCc1ccc(C2COC(c3c(F)cccc3F)=N2)cc1` (centres unmarked) [Compound R2-1], in assay [1], the mortality at 0.1 µg/mL worked out at 50%, the mortality at 1 µg/mL was found to be 85%, the mortality at 10 µg/mL was determined as 100% and the mortality at 100 µg/mL was 100%. Further, the mortality at 200 µg/mL in assay [1] was determined as 100%. Further, in assay [2], the mortality at 0.1 µg/mL is 60%, the mortality at 1 µg/mL was determined as 97%, the mortality at 10 µg/mL was determined as 100% and the mortality at 100 µg/mL amounted to 100%. The mortality at 200 µg/mL in assay [2] came to 100%.
Consider `CCOCc1ccc(C2COC(c3c(F)cccc3F)=N2)cc1` (centres unmarked) [Compound R2-2], for which, in assay [1], the “acaricidal activity compared with etoxazole” value is “higher acaricidal activity than etoxazole”, the mortality at 0.001 µg/mL is 30%, the mortality at 0.01 µg/mL is 50% and the mortality at 0.1 µg/mL is 80%. In assay [1], the mortality at 0.5 µg/mL came to 83%, the mortality at 1 µg/mL was 90%, the mortality at 10 µg/mL was 90% and the mortality at 100 µg/mL is 100%. The mortality at 200 µg/mL in assay [1] is 100%. Besides, in assay [2], the mortality at 0.001 µg/mL stood at 40%, the mortality at 0.01 µg/mL turned out to be 65%, the mortality at 0.1 µg/mL was determined as 85% and the mortality at 0.5 µg/mL worked out at 90%. Besides, in assay [2], the mortality at 1 µg/mL worked out at 95%, the mortality at 10 µg/mL amounted to 100%, the mortality at 100 µg/mL was determined as 100% and the mortality at 200 µg/mL amounted to 100%.
On to `CCCOCc1ccc(C2COC(c3c(F)cccc3F)=N2)cc1` (centres unmarked) [Compound R2-3], for which, in assay [1], the “acaricidal activity compared with etoxazole” value is “higher acaricidal activity than etoxazole”, the mortality at 0.001 µg/mL was 45%, the mortality at 0.01 µg/mL amounted to 70% and the mortality at 0.1 µg/mL was 90%. For the same molecule, in assay [1], the mortality at 0.5 µg/mL worked out at 91%, the mortality at 1 µg/mL is 95%, the mortality at 10 µg/mL was found to be 97% and the mortality at 100 µg/mL is 100%. Also, in assay [1], the mortality at 200 µg/mL was 100% and the “larvicidal activity, times that of etoxazole” value is 58 times. In assay [2], the mortality at 0.001 µg/mL was determined as 50%, the mortality at 0.01 µg/mL was 77%, the mortality at 0.1 µg/mL was 85% and the mortality at 0.5 µg/mL is 92%. Also, in assay [2], the mortality at 1 µg/mL amounted to 100%, the mortality at 10 µg/mL amounted to 100%, the mortality at 100 µg/mL was 100% and the mortality at 200 µg/mL came to 100%. In addition, in assay [2] (relative to etoxazole), the “activity on mite eggs, times that of etoxazole” value is given as 105 times.
Turning to `FCCOCc1ccc(C2COC(c3c(F)cccc3F)=N2)cc1` (centres unmarked) [Compound R2-4], in assay [1], the mortality at 0.1 µg/mL was found to be 70%, the mortality at 1 µg/mL came out at 85%, the mortality at 10 µg/mL is 92% and the mortality at 100 µg/mL was 100%. For the same molecule, the mortality at 200 µg/mL in assay [1] stood at 100%. Moreover, in assay [2], the mortality at 0.1 µg/mL stood at 70%, the mortality at 1 µg/mL is 90%, the mortality at 10 µg/mL is 98% and the mortality at 100 µg/mL amounted to 100%. Besides, in assay [2], the mortality at 200 µg/mL was determined as 100%.
